The target in the experiment is T1, hSCN9A (Homo sapiens, UniProt Q15858).
T1 construct: expressed in transfected cells
The experiment is described as follows: Whole-cell patch-clamp electrophysiology (conventional or PatchXpress), HEK cells expressing hSCN9A, estimated IC-50. The format is cell-based. The settings on record: estimated IC-50, HEK cells expressing hSCN9A; class symbols or bounds; read-out: SCN9A EIC-50. The protocol: Human Embryonic Kidney (HEK) cells were transfected with hSCN3A or hSCN9A constructs using lipofectamine reagent (Invitrogen), using standard techniques. Cells stably expressing the hSCN3A or hSCN9A constructs were identified by their resistance to G-418 (400 μg/ml). Clones were screened for expression using the whole-cell voltage-clamp technique. HEK cells stably transfected with hSCN3A or hSCN9A were maintained in DMEM medium supplemented with 10% heat-inactivated fetal bovine serum and 400 μg/ml G418 sulfate in an incubator at 37° C. with a humidified atmosphere of 10% CO2. For HTS, cells were harvested from flasks by trypsinization and replated in an appropriate multi-well plate (typically 96 or 384 wells/plate) such that confluence would be achieved within 24 hours of plating. For electrophysiological studies, cells were removed from the culture flask by brief trypsinization and replated at low density onto glass cover slips. Cells were typically used for electrophysiological experiments within 24 to 72 h after plating. Cover slips containing HEK cells expressing hSCN3A or hSCN9A were placed in a bath on the stage of an inverted microscope and perfused (approximately 1 ml/min) with extracellular solution of the following composition: 138 mM NaCl, 2 mM CaCl2, 5.4 mM KCl, 1 mM MgCl2, 10 mM glucose, and 10 mM HEPES, pH 7.4, with NaOH. […] All recordings were made at room temperature (22-24° C.) using AXOPATCH 200B amplifiers and PCLAMP software (Axon Instruments, Burlingame, Calif.) or PatchXpress 7000 hardware and associated software (Axon Instruments, Burlingame, Calif.). hSCN3A or hSCN9A currents in HEK cells were measured using the whole-cell configuration of the patch-clamp technique (Hamill et al., 1981). […] As a result, voltage errors were negligible and no correction was applied. Current records were acquired at 20 to 50 KHz and filtered at 5 to 10 KHz. HEK cells stably transfected with hSCN3A or hSCN9A were viewed under Hoffman contrast optics and placed in front of an array of flow pipes emitting either control or compound-containing extracellular solutions. All compounds were dissolved in dimethyl sulfoxide to make 10 mM stock solutions, which were then diluted into extracellular solution to attain the final concentrations desired. […] The voltage-dependence of inactivation was determined by applying a series of depolarizing prepulses (8 sec long in 10 mV increments) from a negative holding potential. The voltage was then immediately stepped to 0 mV to assess the magnitude of the sodium current. Currents elicited at 0 mV were plotted as a function of prepulse potential to allow estimation of the voltage midpoint of inactivation (V1/2). Cells were then voltage clamped at the empirically determined V1/2. Compounds were tested for their ability to inhibit hSCN3A or hSCN9A sodium channels by activating the channel with a 20 msec voltage step to 0 mV following an 8 second conditioning prepulse to the empirically determined V1-2 (Table B). Compound effect (% inhibition) was determined by difference in current amplitude before and after application of test compounds. […] In some cases electrophysiological assays were conducted with PatchXpress 7000 hardware and associated software (Molecular Devices Corp) (Table B). All assay buffers and solutions were identical to those used in conventional whole-cell voltage clamp experiments described above. hSCN3A or hSCN9A containing cells were grown as above to 50%-80% confluency and harvested by trypsinization. Trypsinized cells were washed and resuspended in extracellular buffer at a concentration of 1×10^6 cells/ml. The onboard liquid handling facility of the PatchXpress was used for dispensing cells and application of test compounds. Determination of the voltage midpoint of inactivation was as described for conventional whole-cell recordings. Cells were then voltage-clamped to the empirically determined V1/2 and current was activated by a 20 msec voltage step to 0 mV.

This passage reports IC50 results from patent US8124610B2, “Sodium channel inhibitors” (Icagen Inc., priority 2007, dated 2012).

T1 sequence (Q15858 whole entry): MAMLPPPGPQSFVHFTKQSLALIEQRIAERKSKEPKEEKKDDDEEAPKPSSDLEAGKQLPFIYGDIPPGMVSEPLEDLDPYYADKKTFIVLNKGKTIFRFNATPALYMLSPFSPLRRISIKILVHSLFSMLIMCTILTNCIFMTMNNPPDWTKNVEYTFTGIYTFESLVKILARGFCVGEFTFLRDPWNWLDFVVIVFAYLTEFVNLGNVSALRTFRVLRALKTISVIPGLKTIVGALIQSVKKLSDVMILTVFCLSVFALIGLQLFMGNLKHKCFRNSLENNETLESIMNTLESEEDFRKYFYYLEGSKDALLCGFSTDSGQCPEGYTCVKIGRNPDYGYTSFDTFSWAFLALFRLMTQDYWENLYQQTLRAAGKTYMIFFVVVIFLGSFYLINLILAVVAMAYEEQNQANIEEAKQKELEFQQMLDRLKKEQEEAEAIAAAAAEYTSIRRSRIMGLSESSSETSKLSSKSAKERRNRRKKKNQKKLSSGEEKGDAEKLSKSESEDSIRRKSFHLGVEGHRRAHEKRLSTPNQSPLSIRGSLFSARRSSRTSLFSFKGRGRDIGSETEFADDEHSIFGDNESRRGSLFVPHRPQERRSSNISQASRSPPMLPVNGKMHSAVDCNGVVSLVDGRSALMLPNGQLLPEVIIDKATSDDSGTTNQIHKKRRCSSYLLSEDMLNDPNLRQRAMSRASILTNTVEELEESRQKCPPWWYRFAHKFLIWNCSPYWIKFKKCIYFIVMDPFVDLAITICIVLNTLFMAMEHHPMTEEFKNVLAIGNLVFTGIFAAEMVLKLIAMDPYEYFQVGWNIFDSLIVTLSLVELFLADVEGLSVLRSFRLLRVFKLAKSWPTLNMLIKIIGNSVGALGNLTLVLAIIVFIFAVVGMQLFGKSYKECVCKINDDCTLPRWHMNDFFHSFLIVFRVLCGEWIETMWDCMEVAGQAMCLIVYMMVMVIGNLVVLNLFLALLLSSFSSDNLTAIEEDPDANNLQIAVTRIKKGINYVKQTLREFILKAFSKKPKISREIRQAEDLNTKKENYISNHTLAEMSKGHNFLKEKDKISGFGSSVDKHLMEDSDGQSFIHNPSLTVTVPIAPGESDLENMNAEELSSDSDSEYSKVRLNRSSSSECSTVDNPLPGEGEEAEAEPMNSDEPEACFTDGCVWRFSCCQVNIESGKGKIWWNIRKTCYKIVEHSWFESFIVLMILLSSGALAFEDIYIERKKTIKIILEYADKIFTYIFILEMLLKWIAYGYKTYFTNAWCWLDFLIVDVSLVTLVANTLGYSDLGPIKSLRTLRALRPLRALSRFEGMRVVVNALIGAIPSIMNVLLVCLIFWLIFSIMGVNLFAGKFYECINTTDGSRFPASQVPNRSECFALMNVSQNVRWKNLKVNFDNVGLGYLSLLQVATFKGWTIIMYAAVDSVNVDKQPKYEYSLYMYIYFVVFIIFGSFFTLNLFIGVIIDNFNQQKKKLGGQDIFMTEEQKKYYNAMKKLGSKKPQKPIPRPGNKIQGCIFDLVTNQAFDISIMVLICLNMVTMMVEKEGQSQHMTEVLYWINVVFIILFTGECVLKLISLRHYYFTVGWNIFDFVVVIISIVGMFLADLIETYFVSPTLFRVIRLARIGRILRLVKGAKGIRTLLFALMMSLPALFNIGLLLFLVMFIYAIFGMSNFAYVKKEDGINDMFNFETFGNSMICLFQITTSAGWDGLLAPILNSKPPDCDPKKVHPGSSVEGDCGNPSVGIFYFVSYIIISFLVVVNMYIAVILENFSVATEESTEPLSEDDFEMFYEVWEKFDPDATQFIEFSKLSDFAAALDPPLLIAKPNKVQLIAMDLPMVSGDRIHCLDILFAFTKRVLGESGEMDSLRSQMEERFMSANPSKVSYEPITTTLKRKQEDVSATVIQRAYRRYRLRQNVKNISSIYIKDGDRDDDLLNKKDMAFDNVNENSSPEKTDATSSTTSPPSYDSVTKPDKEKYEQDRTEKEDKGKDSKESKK

In the case of `Cn1ncc(-c2ccccc2)c1Nc1ccc(S(=O)(=O)Nc2nccs2)c(F)c1` [Compound 148, 2-fluoro-4-(1-methyl-4-phenyl-1H-pyrazol-5-ylamino)-N-(thiazol-2-yl)benzenesulfonamide], the IC50 is 2 to 10 µM.
On to `Cc1ccc(Cc2cc(Nc3ccc(S(=O)(=O)Nc4nccs4)c(F)c3)n(C(C)(C)C)n2)cc1` [Compound 157, 4-(1-tert-butyl-3-(4-methylbenzyl)-1H-pyrazol-5-ylamino)-2-fluoro-N-(thiazol-2-yl)benzenesulfonamide], for which the IC50 was less than 2 µM.
As for `Cc1ccc(Cc2cc(Nc3ccc(S(=O)(=O)Nc4nccs4)cc3F)n(C(C)(C)C)n2)cc1` [Compound 158, 4-(1-tert-butyl-3-(4-methylbenzyl)-1H-pyrazol-5-ylamino)-3-fluoro-N-(thiazol-2-yl)benzenesulfonamide], the IC50 was less than 2 µM.
Under `Cc1ccc(Cc2cc(Nc3ccc(S(=O)(=O)Nc4nccs4)c(F)c3)n(C)n2)cc1` [Compound 159, 2-fluoro-4-(1-methyl-3-(4-methylbenzyl)-1H-pyrazol-5-ylamino)-N-(thiazol-2-yl)benzenesulfonamide] stands less than 2 µM; under `Cc1ccc(Cc2cc(Nc3ccc(S(=O)(=O)Nc4nccs4)cc3F)n(C)n2)cc1` [Compound 160, 3-fluoro-4-(1-methyl-3-(4-methylbenzyl)-1H-pyrazol-5-ylamino)-N-(thiazol-2-yl)benzenesulfonamide], less than 2 µM; under `Cc1cc(Nc2ccc(S(=O)(=O)Nc3ncc(Cl)s3)cc2)n(-c2ccccc2)n1` [Compound 163, N-(5-chlorothiazol-2-yl)-4-(3-methyl-1-phenyl-1H-pyrazol-5-ylamino)benzenesulfonamide], 2 to 10 µM.
Under `CC(C)(C)n1nc(Cc2cccc(Cl)c2)cc1Nc1ccc(S(=O)(=O)Nc2nccs2)c(F)c1` [Compound 164, 4-(1-tert-butyl-3-(3-chlorobenzyl)-1H-pyrazol-5-ylamino)-2-fluoro-N-(thiazol-2-yl)benzenesulfonamide] stands less than 2 µM; under `Cc1ccc(Cc2cc(Nc3ccc(S(=O)(=O)Nc4nccs4)c(F)c3)[nH]n2)cc1` [Compound 165, 2-fluoro-4-(3-(4-methylbenzyl)-1H-pyrazol-5-ylamino)-N-(thiazol-2-yl)benzenesulfonamide], less than 2 µM; under `CC(C)(C)n1nc(Cc2ccc(Cl)c(F)c2)cc1Nc1ccc(S(=O)(=O)Nc2nccs2)c(F)c1` [Compound 166, 4-(1-tert-butyl-3-(4-chloro-3-fluorobenzyl)-1H-pyrazol-5-ylamino)-2-fluoro-N-(thiazol-2-yl)benzenesulfonamide], less than 2 µM.
`Cc1ccc(Cc2cc(Nc3ccc(S(=O)(=O)Nc4nccs4)cc3F)[nH]n2)cc1` [Compound 167, 3-fluoro-4-(3-(4-methylbenzyl)-1H-pyrazol-5-ylamino)-N-(thiazol-2-yl)benzenesulfonamide]: the IC50 is less than 2 µM.
As to `O=S(=O)(Nc1nccs1)c1ccc(Nc2ccnn2-c2ccccc2)cc1F` [Compound 168, 2-fluoro-4-(1-phenyl-1H-pyrazol-5-ylamino)-N-(thiazol-2-yl)benzenesulfonamide], the IC50 was less than 2 µM.
The value for `Cc1cc(Nc2ccc(S(=O)(=O)Nc3nccs3)c(F)c2)n(C2CCCC2)n1` [Compound 169, 4-(1-cyclopentyl-3-methyl-1H-pyrazol-5-ylamino)-2-fluoro-N-(thiazol-2-yl)benzenesulfonamide] was less than 2 µM.
The value for `Cc1cc(Nc2ccc(S(=O)(=O)Nc3nccs3)c(F)c2)n(-c2ccc(C(F)(F)F)cc2)n1` [Compound 170, 2-fluoro-4-(3-methyl-1-(4-(trifluoromethyl)phenyl)-1H-pyrazol-5-ylamino)-N-(thiazol-2-yl)benzenesulfonamide] was less than 2 µM.
The value for `O=S(=O)(Nc1nccs1)c1ccc(Nc2cnn(C(c3ccccc3)c3ccccc3)c2)cc1F` [Compound 171, 4-(1-benzhydryl-1H-pyrazol-4-ylamino)-2-fluoro-N-(thiazol-2-yl)benzenesulfonamide] was less than 2 µM.
Consider `O=S(=O)(Nc1nccs1)c1ccc(Nc2c3c(nn2-c2ccccc2)CCC3)cc1F` [Compound 174, 2-fluoro-4-(2-phenyl-2,4,5,6-tetrahydrocyclopenta[c]pyrazol-3-ylamino)-N-(thiazol-2-yl)benzenesulfonamide], for which the IC50 was less than 2 µM.
Under `Cc1cc(Nc2ccc(S(=O)(=O)Nc3nccs3)c(F)c2)n(C(C)C2CC2)n1` (centres unmarked) [Compound 175, 4-(1-(1-cyclopropylethyl)-3-methyl-1H-pyrazol-5-ylamino)-2-fluoro-N-(thiazol-2-yl)benzenesulfonamide] stands less than 2 µM; under `Cc1cccc(-n2nc(C)cc2Nc2ccc(S(=O)(=O)Nc3nccs3)c(F)c2)c1` [Compound 176, 2-fluoro-4-(3-methyl-1-m-tolyl-1H-pyrazol-5-ylamino)-N-(thiazol-2-yl)benzenesulfonamide], less than 2 µM; under `Cc1cc(Nc2ccc(S(=O)(=O)Nc3nccs3)c(F)c2)n(-c2cccc(F)c2)n1` [Compound 177, 2-fluoro-4-(1-(3-fluorophenyl)-3-methyl-1H-pyrazol-5-ylamino)-N-(thiazol-2-yl)benzenesulfonamide], less than 2 µM.
Turning to `Cc1cc(Nc2ccc(S(=O)(=O)Nc3nccs3)c(F)c2)n(-c2ccc(F)cc2)n1` [Compound 178, 2-fluoro-4-(1-(4-fluorophenyl)-3-methyl-1H-pyrazol-5-ylamino)-N-(thiazol-2-yl)benzenesulfonamide], the IC50 is less than 2 µM.
Turning to `Cc1cc(Nc2ccc(S(=O)(=O)Nc3nccs3)c(F)c2)n(-c2ccccc2C(F)(F)F)n1` [Compound 179, 2-fluoro-4-(3-methyl-1-(2-(trifluoromethyl)phenyl)-1H-pyrazol-5-ylamino)-N-(thiazol-2-yl)benzenesulfonamide], the IC50 is less than 2 µM.
With `N#Cc1cn(-c2ccccc2)nc1Nc1ccc(S(=O)(=O)Nc2nccs2)c(F)c1` [Compound 180, 4-(4-cyano-1-phenyl-1H-pyrazol-3-ylamino)-2-fluoro-N-(thiazol-2-yl)benzenesulfonamide], the IC50 was 2 to 10 µM.
For `Cc1cc(Nc2ccc(S(=O)(=O)Nc3nccs3)c(F)c2)n(-c2cccc(C(F)(F)F)c2)n1` [Compound 181, 2-fluoro-4-(3-methyl-1-(3-(trifluoromethyl)phenyl)-1H-pyrazol-5-ylamino)-N-(thiazol-2-yl)benzenesulfonamide], the IC50 is less than 2 µM.
For `Cc1cc(Nc2ccc(S(=O)(=O)Nc3nccs3)c(F)c2)n(-c2cc(F)ccc2C)n1` [Compound 186, 2-fluoro-4-(1-(5-fluoro-2-methylphenyl)-3-methyl-1H-pyrazol-5-ylamino)-N-(thiazol-2-yl)benzenesulfonamide], the IC50 was less than 2 µM.
Turning to `Cc1cc(Nc2ccc(S(=O)(=O)Nc3nccs3)c(F)c2)n(-c2ccc(F)cc2C(F)(F)F)n1` [Compound 187, 2-fluoro-4-(1-(4-fluoro-2-(trifluoromethyl)phenyl)-3-methyl-1H-pyrazol-5-ylamino)-N-(thiazol-2-yl)benzenesulfonamide], the IC50 was less than 2 µM.
`Cc1cc(Nc2ccc(S(=O)(=O)Nc3nccs3)c(F)c2)n(-c2c(Cl)cccc2Cl)n1` [Compound 189, 4-(1-(2,6-dichlorophenyl)-3-methyl-1H-pyrazol-5-ylamino)-2-fluoro-N-(thiazol-2-yl)benzenesulfonamide]: the IC50 is less than 2 µM.
On to `Cc1cc(Nc2ccc(S(=O)(=O)Nc3nccs3)c(F)c2)n(-c2c(F)cccc2F)n1` [Compound 190, 4-(1-(2,6-difluorophenyl)-3-methyl-1H-pyrazol-5-ylamino)-2-fluoro-N-(thiazol-2-yl)benzenesulfonamide], for which the IC50 is less than 2 µM.
